Literature values as cited in patent publication US20170143622A1, “STABLE LIQUID READY-TO-USE INJECTABLE FORMULATION OF BORTEZOMIB” (DR. REDDY'S LABORATORIES LIMITED, priority 2014, published 2017).
Where two headings read alike, the source gives them in different places.

Columns and labels:
[1] = 25° C.
[2] = polyethylene glycol (PEG)
[3] = ethanol composition, 40° C. and 75% relative humidity, 1 month

Degradation ([1]; ethanol: normal saline solution (2:98, pH 2.8), bortezomib 0.5 mg/ml, 1 month): 20%
Degradation ([1]; polyethylene glycol (PEG) 300: Ethanol:Water (40:10:50), 24 hours): ≤ 20%
Degradation ([1]; propylene glycol (PG): Ethanol:Water (50:10:40), 8 months): 20%
Solubility in PEG [2]: insolubility
Bortezomib degraded to [3]: 76%
Compound: CC(C)C[C@H](NC(=O)[C@H](Cc1ccccc1)NC(=O)c1cnccn1)B(O)O [bortezomib, [(1R)-3-methyl-1-[[(2S)-1-oxo-3-phenyl-2[(pyrazinylcarbonyl)amino]propyl]amino]butyl]boronic acid]
